Source: PubChem BioAssay (NCI)
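Each compound was tested at five concentrations against cells in 96-well plates for 48 hours. Definition used: TGI = concentration required for complete inhibition of growth.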

What was measured:
Test in all cases: NCI tumour cell line growth inhibition, 48 h
SN12K1 renal = test system: SN12K1 renal
P388 leukemia = test system: P388 leukemia
P388/ADR leukemia = test system: P388/ADR leukemia

SMILES: CC1CC(C)(O)C2C3(C)CCCC2(COC3=O)C12CCC1(CCOC1=O)O2 (stereo not drawn)
- TGI (SN12K1 renal): > 250 µM
- TGI (P388 leukemia): > 250 µM
- TGI (P388/ADR leukemia): > 116 µM
